Here are results for five molecules from ChEMBL document CHEMBL1154311, “Isolation of the protein tyrosine phosphatase 1B inhibitory metabolite from the marine-derived fungus Cosmospora sp. SF-5060” (Bioorg Med Chem Lett, 2009).

The target in assay [1] is T1, Tyrosine-protein phosphatase non-receptor type 1 (Homo sapiens, UniProt P18031).
T1 sequence (P18031 whole entry): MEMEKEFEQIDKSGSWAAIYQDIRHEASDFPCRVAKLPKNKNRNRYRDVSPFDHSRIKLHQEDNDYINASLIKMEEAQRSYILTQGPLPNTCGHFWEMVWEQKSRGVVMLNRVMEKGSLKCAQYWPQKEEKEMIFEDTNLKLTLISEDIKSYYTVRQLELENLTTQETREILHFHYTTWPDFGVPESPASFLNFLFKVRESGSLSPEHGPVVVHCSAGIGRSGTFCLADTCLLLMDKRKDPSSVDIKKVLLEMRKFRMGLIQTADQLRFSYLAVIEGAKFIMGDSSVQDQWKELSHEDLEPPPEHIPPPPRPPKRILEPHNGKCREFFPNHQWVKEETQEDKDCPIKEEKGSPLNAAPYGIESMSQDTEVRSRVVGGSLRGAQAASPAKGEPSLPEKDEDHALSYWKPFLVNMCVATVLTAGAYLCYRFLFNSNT
The assay can be described thus: Inhibition of PTP1B mediated pNPP hydrolysis.

For assay [2], the target named is T2, Tyrosine-protein phosphatase non-receptor type 1 (Homo sapiens) (UniProt P18031).
T2 sequence (whole entry): T1 sequence (P18031 whole entry)
Description: Inhibition of PTP1B mediated pNPP hydrolysis at 178 uM.

Assay [3] addresses T1, Tyrosine-protein phosphatase non-receptor type 1. Description: Competitive inhibition of PTP1B mediated pNPP hydrolysis by Lineweaver-Burke plot analysis.
Assay [4] addresses T3, Tyrosine-protein phosphatase non-receptor type 2 (Homo sapiens, UniProt P17706).
T3 sequence (P17706 whole entry): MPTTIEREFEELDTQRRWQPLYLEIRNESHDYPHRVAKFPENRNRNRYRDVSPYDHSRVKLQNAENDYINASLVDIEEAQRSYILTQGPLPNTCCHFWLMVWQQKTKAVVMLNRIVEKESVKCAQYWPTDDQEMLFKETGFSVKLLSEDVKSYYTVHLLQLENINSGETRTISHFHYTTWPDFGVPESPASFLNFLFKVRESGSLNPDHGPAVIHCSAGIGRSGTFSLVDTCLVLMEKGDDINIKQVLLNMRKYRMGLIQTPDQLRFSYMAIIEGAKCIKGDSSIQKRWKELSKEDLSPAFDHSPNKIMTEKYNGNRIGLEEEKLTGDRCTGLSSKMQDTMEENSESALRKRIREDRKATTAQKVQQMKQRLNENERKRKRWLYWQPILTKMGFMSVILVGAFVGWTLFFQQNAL
Description: Inhibition of TCPTP.

Assay [5] addresses T4, Tyrosine-protein phosphatase non-receptor type 11 (Homo sapiens, UniProt Q06124).
T4 sequence (Q06124 whole entry): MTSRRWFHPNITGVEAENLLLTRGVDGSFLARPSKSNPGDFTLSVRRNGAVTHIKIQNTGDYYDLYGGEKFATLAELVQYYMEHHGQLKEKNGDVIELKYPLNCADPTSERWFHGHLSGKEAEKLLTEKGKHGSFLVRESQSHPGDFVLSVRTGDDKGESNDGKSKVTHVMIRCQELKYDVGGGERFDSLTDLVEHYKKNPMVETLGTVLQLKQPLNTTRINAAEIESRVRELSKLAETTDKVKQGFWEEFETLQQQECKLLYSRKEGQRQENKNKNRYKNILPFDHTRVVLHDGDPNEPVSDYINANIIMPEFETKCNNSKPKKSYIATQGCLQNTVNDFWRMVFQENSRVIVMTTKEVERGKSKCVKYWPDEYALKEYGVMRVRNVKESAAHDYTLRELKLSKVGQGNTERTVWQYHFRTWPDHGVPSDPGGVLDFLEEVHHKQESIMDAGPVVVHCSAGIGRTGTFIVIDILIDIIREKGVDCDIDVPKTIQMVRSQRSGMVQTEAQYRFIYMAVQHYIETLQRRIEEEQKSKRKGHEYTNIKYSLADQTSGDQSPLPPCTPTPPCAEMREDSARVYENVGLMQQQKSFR
Description: Inhibition of SHP-2.

The target of assay [6] is Receptor-type tyrosine-protein phosphatase F (Homo sapiens, UniProt P10586). The assay can be described thus: Inhibition of LAR.
Assay [7] deals with T5, Receptor-type tyrosine-protein phosphatase C (Homo sapiens, UniProt P08575).
T5 sequence (P08575 whole entry): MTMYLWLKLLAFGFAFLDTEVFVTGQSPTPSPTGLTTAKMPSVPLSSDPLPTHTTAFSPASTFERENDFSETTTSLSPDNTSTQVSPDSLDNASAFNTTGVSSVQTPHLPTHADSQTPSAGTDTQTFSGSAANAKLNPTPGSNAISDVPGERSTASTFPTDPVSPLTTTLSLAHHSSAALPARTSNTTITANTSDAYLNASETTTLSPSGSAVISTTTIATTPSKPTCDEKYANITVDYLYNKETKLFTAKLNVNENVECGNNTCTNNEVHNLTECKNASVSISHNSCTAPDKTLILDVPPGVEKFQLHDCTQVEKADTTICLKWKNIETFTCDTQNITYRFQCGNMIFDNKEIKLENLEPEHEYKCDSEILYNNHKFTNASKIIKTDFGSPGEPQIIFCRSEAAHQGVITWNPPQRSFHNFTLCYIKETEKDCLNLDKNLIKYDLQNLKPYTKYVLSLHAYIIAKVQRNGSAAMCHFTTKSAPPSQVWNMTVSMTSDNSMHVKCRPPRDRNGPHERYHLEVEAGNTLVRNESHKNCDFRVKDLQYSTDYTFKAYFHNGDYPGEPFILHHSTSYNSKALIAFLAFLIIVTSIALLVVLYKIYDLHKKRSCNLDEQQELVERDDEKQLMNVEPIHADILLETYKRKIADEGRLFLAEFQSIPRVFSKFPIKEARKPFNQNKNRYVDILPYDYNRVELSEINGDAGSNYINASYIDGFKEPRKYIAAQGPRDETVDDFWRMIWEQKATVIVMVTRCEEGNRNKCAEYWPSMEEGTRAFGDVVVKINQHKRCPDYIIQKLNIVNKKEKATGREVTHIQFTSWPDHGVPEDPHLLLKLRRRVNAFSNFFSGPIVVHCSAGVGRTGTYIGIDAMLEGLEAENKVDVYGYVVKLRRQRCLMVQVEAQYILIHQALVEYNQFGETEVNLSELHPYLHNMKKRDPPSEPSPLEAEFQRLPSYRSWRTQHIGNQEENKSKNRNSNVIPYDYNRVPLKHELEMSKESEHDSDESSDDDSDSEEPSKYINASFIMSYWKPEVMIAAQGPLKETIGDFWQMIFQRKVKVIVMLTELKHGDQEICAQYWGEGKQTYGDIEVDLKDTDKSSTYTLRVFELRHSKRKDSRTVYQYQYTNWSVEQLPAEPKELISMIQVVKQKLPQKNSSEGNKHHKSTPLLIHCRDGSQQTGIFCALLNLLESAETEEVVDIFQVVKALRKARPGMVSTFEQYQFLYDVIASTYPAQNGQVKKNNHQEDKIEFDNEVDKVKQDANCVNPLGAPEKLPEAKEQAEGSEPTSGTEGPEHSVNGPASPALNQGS
The assay can be described thus: Inhibition of CD45.

Chain of Receptor-type tyrosine-protein phosphatase F (P10586 whole entry): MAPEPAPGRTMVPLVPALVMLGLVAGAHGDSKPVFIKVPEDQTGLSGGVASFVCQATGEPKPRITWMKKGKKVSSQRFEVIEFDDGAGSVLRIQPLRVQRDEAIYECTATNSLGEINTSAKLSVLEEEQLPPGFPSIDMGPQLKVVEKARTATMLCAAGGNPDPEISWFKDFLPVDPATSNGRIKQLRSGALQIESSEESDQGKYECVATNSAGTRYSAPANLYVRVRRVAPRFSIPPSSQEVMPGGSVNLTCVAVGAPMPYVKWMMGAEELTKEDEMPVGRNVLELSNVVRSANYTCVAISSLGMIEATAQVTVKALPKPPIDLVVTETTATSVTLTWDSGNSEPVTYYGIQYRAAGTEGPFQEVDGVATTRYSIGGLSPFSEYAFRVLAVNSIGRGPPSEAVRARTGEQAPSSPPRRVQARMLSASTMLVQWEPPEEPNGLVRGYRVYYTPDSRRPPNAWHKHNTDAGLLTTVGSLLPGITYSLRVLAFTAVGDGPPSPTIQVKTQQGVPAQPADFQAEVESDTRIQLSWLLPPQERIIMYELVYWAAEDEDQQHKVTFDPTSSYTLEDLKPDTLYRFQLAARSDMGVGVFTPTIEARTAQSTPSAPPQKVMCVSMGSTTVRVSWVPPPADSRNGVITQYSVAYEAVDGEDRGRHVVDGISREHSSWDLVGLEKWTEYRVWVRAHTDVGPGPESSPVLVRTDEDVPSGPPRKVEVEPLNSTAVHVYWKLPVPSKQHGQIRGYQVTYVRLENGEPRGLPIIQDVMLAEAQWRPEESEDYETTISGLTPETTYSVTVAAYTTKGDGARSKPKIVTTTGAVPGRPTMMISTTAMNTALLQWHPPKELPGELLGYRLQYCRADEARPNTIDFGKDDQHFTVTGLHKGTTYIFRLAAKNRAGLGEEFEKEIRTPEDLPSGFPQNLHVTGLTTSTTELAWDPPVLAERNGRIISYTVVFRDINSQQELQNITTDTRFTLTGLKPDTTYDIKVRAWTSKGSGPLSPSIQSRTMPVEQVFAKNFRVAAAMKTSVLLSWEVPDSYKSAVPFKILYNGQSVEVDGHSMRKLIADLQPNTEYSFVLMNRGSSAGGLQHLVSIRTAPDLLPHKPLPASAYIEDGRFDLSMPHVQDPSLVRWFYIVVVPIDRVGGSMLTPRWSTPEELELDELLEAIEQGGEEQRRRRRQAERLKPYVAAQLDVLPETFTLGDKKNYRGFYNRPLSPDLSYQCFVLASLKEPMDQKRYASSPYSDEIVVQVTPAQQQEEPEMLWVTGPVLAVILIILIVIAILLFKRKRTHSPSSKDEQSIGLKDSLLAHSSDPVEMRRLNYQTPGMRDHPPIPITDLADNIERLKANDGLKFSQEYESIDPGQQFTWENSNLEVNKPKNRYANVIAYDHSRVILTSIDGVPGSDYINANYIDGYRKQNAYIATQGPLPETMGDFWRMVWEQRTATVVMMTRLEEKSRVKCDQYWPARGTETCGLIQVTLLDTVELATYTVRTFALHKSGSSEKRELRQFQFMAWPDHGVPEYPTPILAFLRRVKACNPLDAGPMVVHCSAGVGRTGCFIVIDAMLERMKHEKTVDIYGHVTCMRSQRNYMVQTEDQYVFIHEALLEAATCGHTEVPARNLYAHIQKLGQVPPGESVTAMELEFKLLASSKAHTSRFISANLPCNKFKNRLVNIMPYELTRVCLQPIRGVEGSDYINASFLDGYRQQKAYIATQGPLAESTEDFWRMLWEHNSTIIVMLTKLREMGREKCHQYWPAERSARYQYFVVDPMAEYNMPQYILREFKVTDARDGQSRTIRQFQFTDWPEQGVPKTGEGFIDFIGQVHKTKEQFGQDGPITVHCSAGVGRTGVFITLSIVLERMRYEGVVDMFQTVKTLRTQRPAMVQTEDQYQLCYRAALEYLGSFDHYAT

For the molecule `CCCCCCCCCCCCCCCc1cc(O[C@@H]2O[C@H](CO)[C@@H](O)[C@H](O)[C@H]2O)cc(O)c1C(=O)O`, the IC50 – broadly, the concentration that inhibits the measured activity by half – in assay [1] was “Dose-dependent effect”; in assay [1] (read-out: IC50) it was 0.59 µM.

Regarding `Cc1cc(O)cc(O)c1C(=O)O`, the inhibition – broadly, the share of the control response that was lost under treatment – in assay [2] was 45%.

With `CCCCCCCCCCCCCCCc1cc(O)cc(O)c1C(=O)Oc1cc(C)c(C(=O)O)c(O)c1`, in assay [1] (read-out: IC50), the IC50 is 0.22 µM.

Turning to `CCCCCCCCCCCCCCCc1cc(O[C@@H]2O[C@H](CO)[C@@H](O)[C@H](O)[C@H]2O)cc(O)c1C(=O)Oc1cc(C)c(C(=O)OC)c(O)c1`, the IC50 in assay [1] (read-out: IC50) is 17 µM.

`CCCCCCCCCCCCCCCc1cc(O[C@@H]2O[C@H](CO)[C@@H](O)[C@H](O)[C@H]2O)cc(O)c1C(=O)Oc1cc(C)c(C(=O)O)c(O)c1` [AQUASTATIN A]: in assay [3], the Ki (commonly a measure of affinity in units of concentration, obtained from inhibition or displacement) worked out at 0.1 µM. Also, the half-inhibitory concentration (IC50) entry in assay [1] was “Dose-dependent effect”; in assay [1] (read-out: IC50), 0.19 µM; in assay [4], 0.51 µM; in assay [5], over 44 µM; in assay [6] it was over 44 µM; in assay [7], over 44 µM.
